Structures can show the parent of a compound that is named as a salt.

Broadly, the inhibition is the drop in the measured response relative to a control, in per cent. For orientation: IC50 means the midpoint of a concentration-inhibition curve.

Chain of LsrK (Q8ZKQ6 whole entry): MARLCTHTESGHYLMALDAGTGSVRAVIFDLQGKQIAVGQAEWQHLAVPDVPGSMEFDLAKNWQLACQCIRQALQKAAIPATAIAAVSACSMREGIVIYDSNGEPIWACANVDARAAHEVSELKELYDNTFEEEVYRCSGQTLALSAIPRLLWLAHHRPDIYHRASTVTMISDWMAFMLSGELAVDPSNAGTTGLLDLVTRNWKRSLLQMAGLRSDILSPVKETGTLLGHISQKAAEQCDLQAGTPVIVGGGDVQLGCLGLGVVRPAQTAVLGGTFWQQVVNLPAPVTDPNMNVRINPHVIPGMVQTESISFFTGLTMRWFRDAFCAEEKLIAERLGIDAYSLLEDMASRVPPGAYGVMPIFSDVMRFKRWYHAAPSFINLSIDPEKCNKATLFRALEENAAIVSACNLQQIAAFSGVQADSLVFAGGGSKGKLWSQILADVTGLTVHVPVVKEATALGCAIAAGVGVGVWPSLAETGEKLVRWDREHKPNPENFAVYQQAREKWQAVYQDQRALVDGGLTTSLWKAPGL

One assay has as its target LsrK (Salmonella typhimurium, UniProt Q8ZKQ6). Nature of the assay: biochemical. It counts as biochemical, S. typhimurium.
Conditions: not given
For `O=C(O)c1cc(-c2ccc(F)cc2F)ccc1O` [DIFLUNISAL], the inhibition at 50 µM was 5%.
Turning to `CC(=O)OCC(=O)[C@@]12OC3(CCCC3)O[C@@H]1C[C@H]1[C@@H]3CCC4=CC(=O)C=C[C@]4(C)[C@@]3(F)[C@@H](O)C[C@@]12C` [AMCINONIDE], the inhibition at 50 µM was 1%.
For `NC1(C(=O)O)CC1` [AMINOCYCLOPROPANECARBOXYLIC ACID], the inhibition at 50 µM is 1%.
For the compound `CC1(C)C(=O)C=C[C@]2(C)[C@H]3CC[C@@]4(C)[C@H](c5ccoc5)OC(=O)[C@H]5O[C@]54[C@]3(C)[C@H](O)C[C@@H]12` [DEACETYLGEDUNIN], the inhibition at 50 µM was 1%.
With `CN(C)[C@@H]1C(O)=C(C(N)=O)C(=O)[C@@]2(O)C(O)=C3C(=O)c4c(O)ccc(Cl)c4[C@@](C)(O)[C@H]3C[C@@H]12` [CHLORTETRACYCLINE HYDROCHLORIDE], the inhibition at 50 µM worked out at 77%.
Turning to `COCC1=C(C(=O)OC(C)OC(=O)OC(C)C)N2C(=O)[C@@H](NC(=O)/C(=N\OC)c3csc(N)n3)[C@H]2SC1` (some centres unmarked) [CEFPODOXIME PROXETIL], the inhibition at 50 µM was found to be 24%.
As to `C[N+](C)(C)CCCCCC[N+](C)(C)C` [HEXAMETHONIUM BROMIDE], the inhibition at 50 µM worked out at 2%.
As to `CCCCCC(=O)O[C@]1(C(C)=O)CC[C@H]2[C@@H]3CCC4=CC(=O)CC[C@]4(C)[C@H]3CC[C@@]21C` [HYDROXYPROGESTERONE CAPROATE], the inhibition at 50 µM was found to be 3%.
Take `Fc1ccc([C@@H]2CCNC[C@H]2COc2ccc3c(c2)OCO3)cc1` [PAROXETINE HYDROCHLORIDE]: the inhibition at 50 µM is 1%.
Regarding `CCN(CC)C(=O)c1ccc(O)c(OC)c1`, the inhibition at 50 µM is 0%.
Regarding `OC(c1cc(C(F)(F)F)nc2c(C(F)(F)F)cccc12)C1CCCCN1` (centres unmarked) [MEFLOQUINE], the inhibition at 50 µM turned out to be 32%.
With `CCCc1nc(C(C)(C)O)c(C(=O)OCc2oc(=O)oc2C)n1Cc1ccc(-c2ccccc2-c2nnn[nH]2)cc1` [OLMESARTAN MEDOXOMIL], the inhibition at 50 µM amounted to 0%.
Same read-out and setting: for `Cc1coc2c1C(=O)C(=O)c1c-2ccc2c1CCCC2(C)C` [TANSHINONE IIA] the value was 50%.
As for `NC[C@H](O)c1ccc(O)c(O)c1` [NOREPINEPHRINE, reference compound], the IC50 worked out at 30 µM and the inhibition at 50 µM was found to be 74%.
In the case of `CN(C)CCC[C@@]1(c2ccc(F)cc2)OCc2cc(C#N)ccc21` [ESCITALOPRAM OXALATE], the inhibition at 50 µM was 1%.
Turning to `CC1(C)S[C@@H]2[C@H](NC(=O)[C@H](NC(=O)N3CCNC3=O)c3ccccc3)C(=O)N2[C@H]1C(=O)O` [AZLOCILLIN SODIUM], the inhibition at 50 µM is 0%.
Still for that read-out and setting: for `COC1=CC(=O)C[C@@H](C)[C@]12Oc1c(Cl)c(OC)cc(OC)c1C2=O` [GRISEOFULVIN] the value was 1%.
Still for that read-out and setting: for `CCC(N)C(O)c1ccc(O)c(O)c1` (centres unmarked) [ETHYLNOREPINEPHRINE HYDROCHLORIDE] the value was 4%; for `CC(=O)Nc1cccc(O)c1` [METACETAMOL], 1%.
Consider `COCCCOc1cc(C[C@@H](C[C@H](N)[C@@H](O)C[C@H](C(=O)NCC(C)(C)C(N)=O)C(C)C)C(C)C)ccc1OC` [ALISKIREN HEMIFUMARATE], for which the inhibition at 50 µM was 0%.
Consider `CCn1cc(C(=O)O)c(=O)c2cc3c(cc21)OCO3` [OXOLINIC ACID], for which the inhibition at 50 µM was 1%.
With `COc1ccc([C@@H](C)C(=O)c2ccc(O)cc2O)cc1` [ANGOLENSIN (R)], the inhibition at 50 µM stood at 1%.
With `OC1CCCCC1N1CCC(c2ccccc2)CC1` (centres unmarked) [VESAMICOL HYDROCHLORIDE], the inhibition at 50 µM came to 1%.
As for `COc1c(C)c2c(c(O)c1C/C=C(\C)CCC(=O)O)C(=O)OC2` [MYCOPHENOLIC ACID], the inhibition at 50 µM came to 1%.
On the same count and under the same terms, as for `COc1ccc2cc([C@H](C)CO)ccc2c1` [NAPROXOL], the figure is 0%; as for `CCc1ccc(CCOc2ccc(CC3SC(=O)NC3=O)cc2)nc1` (centres unmarked) [PIOGLITAZONE HYDROCHLORIDE], 0%; as for `C[C@]12C=CC(=O)C=C1CC[C@H]1[C@@H]3C[C@@H](O)[C@](O)(C(=O)CO)[C@@]3(C)C[C@H](O)[C@@]12F` [TRIAMCINOLONE], 11%.
Consider `[N-]=[N+]=CC(=O)OC[C@H](N)C(=O)O` [AZASERINE], for which the inhibition at 50 µM was found to be 3%.
Consider `NC1=NCCN1CC(=O)O` [CYCLOCREATINE], for which the inhibition at 50 µM is 0%.
With `CCOc1ccc2ccccc2c1C(=O)N[C@@H]1C(=O)N2[C@@H]1SC(C)(C)[C@@H]2C(=O)O` [NAFCILLIN SODIUM], the inhibition at 50 µM turned out to be 23%.
In the case of `COc1ccc(-c2oc3c(CC=C(C)C)c(O[C@@H]4O[C@H](CO)[C@@H](O)[C@H](O)[C@H]4O)cc(O)c3c(=O)c2O[C@@H]2O[C@@H](C)[C@H](O)[C@@H](O)[C@H]2O)cc1` [ICARIIN], the inhibition at 50 µM is 36%.
`C[C@H]1C(=O)O[C@@H]2CCN3CC=C(COC(=O)[C@](C)(O)[C@]1(C)O)[C@H]23` [MONOCROTALINE]: the inhibition at 50 µM worked out at 111%.
On to `Cc1nnc(NS(=O)(=O)c2ccc(N)cc2)s1` [SULFAMETHIZOLE], for which the inhibition at 50 µM was determined as 2%.
On to `C[N+]1(C)CCC(OC(=O)C(O)(c2ccccc2)C2CCCC2)C1` (centres unmarked) [GLYCOPYRROLATE], for which the inhibition at 50 µM is 0%.
With `COc1cccc2c1C(=O)c1c(O)c3c(c(O)c1C2=O)C[C@@](O)(C(C)=O)C[C@@H]3O[C@H]1C[C@H](N)[C@H](O)[C@H](C)O1` [DAUNORUBICIN], the inhibition at 50 µM amounted to 2%.
With `Cc1cccc(C(=O)O)c1O` [HYDROXYTOLUIC ACID], the inhibition at 50 µM worked out at 1%.
In the case of `COc1cccc(OC)c1C(=O)N[C@@H]1C(=O)N2[C@@H]1SC(C)(C)[C@@H]2C(=O)O` [METHICILLIN SODIUM], the inhibition at 50 µM was 1%.
With `CC1(C)CC2C1CC[C@]1(CBr)CCC3C(CC(=O)O)C(=O)O[C@@]32C1` (some centres unmarked) [BROMO-3-HYDROXY-4-(SUCCIN-2-YL)-CARYOLANE gamma-LACTONE], the inhibition at 50 µM is 1%.
For the compound `COc1ccc(CC(=O)c2ccc(O)cc2O)cc1` [ONONETIN], the inhibition at 50 µM worked out at 5%.
As to `Cc1cccc(C)c1NC(=O)c1ccccc1C(=O)O` [FTAXILIDE], the inhibition at 50 µM turned out to be 4%.
With `O=c1cccc2n1C[C@@H]1CNC[C@H]2C1` [CYTISINE], the inhibition at 50 µM worked out at 3%.
Still for that read-out and setting: as for `CC[N+](C)(CC)CCOC(=O)C(O)(c1ccccc1)C1CCCCC1` (centres unmarked) [OXYPHENONIUM BROMIDE], the figure is 4%.
Still for that read-out and setting: as for `CC(C)c1nc(N(C)S(C)(=O)=O)nc(-c2ccc(F)cc2)c1/C=C/[C@@H](O)C[C@@H](O)CC(=O)O` [ROSUVASTATIN CALCIUM], the figure is 1%; as for `O=C1c2cccc(O)c2C(=O)c2c(O)cccc21` [DANTHRON], 1%; as for `COc1ccc([C@@H]2CC(=O)c3c(O)cc(O)cc3O2)cc1O` [HESPERETIN], 0%.
Consider `CCn1cc(C(=O)O)c(=O)c2cc(F)c(N3CCNCC3)nc21` [ENOXACIN], for which the inhibition at 50 µM came out at 0%.
Take `C[C@H](CCC(=O)O)[C@H]1CC[C@H]2[C@@H]3C(=O)C[C@@H]4CC(=O)CC[C@]4(C)[C@H]3CC(=O)[C@]12C` [DEHYDROCHOLIC ACID]: the inhibition at 50 µM stood at 4%.
`Cc1cn([C@H]2C[C@H](N=[N+]=[N-])[C@@H](CO)O2)c(=O)[nH]c1=O` [ZIDOVUDINE [AZT], ZIDOVUDINE]: the inhibition at 50 µM is 36%.
As to `CCOc1ccc(NC(=O)CC(C)O)cc1` (centres unmarked) [BUCETIN], the inhibition at 50 µM worked out at 0%.
Same read-out and setting: for `NC[C@H]1O[C@H](O[C@H]2[C@H](O)[C@@H](O[C@H]3O[C@H](CO)[C@@H](O)[C@H](N)[C@H]3O)[C@H](N)C[C@@H]2N)[C@H](N)C[C@@H]1O` [TOBRAMYCIN] the value was 0%; for `CC(=O)O[C@]1(C(C)=O)CC[C@H]2[C@@H]3C=C(Cl)C4=CC(=O)[C@@H]5C[C@@H]5[C@]4(C)[C@H]3CC[C@@]21C` [CYPROTERONE ACETATE], 0%; for `CC[N+](C)(C)c1cccc(O)c1` [EDROPHONIUM CHLORIDE], 0%.
As to `CC(=O)c1cc2ccccc2oc1=O` [3-ACETYLCOUMARIN], the inhibition at 50 µM is 0%.
Still for that read-out and setting: as for `C[C@H]1c2cccc(O)c2C(=O)C2=C(O)[C@]3(O)C(=O)C(C(N)=O)=C(O)[C@@H](N(C)C)[C@@H]3[C@@H](O)[C@@H]21` [DOXYCYCLINE HYDROCHLORIDE], the figure is 106%.

The assay is the same for the next values; noted with them: 50 µM.
Regarding POLYMYXIN B SULFATE, the “Inhibition (%)” value was 48.
As for `CCC(Cc1c(I)cc(I)c(N)c1I)C(=O)O` (centres unmarked) [IOPANIC ACID], the “Inhibition (%)” value was found to be 16.
`COC[C@]12CN(C=O)[C@@H]3[C@@H]4[C@H](OC)[C@H]1[C@@]3([C@@H](OC)C[C@H]2O)[C@@H]1C[C@@]2(O)[C@H](OC(=O)c3ccccc3)[C@@H]1[C@]4(OC(C)=O)[C@@H](O)[C@@H]2OC` [OXONITINE]: the “Inhibition (%)” value is given as 0.
Same read-out and setting: as for `C[C@@H]1CC[C@@]2(OC1)O[C@H]1C[C@H]3[C@@H]4CC[C@H]5C[C@@H](O)CC[C@]5(C)C4=CC[C@]3(C)[C@H]1[C@@H]2C` [3beta-HYDROXYISOALLOSPIROST-9(11)-ENE], the figure is 2.
Regarding `COc1cc(OC)c(C(=O)CCCN2CCCC2)c(OC)c1.Cl` [BUFLOMEDIL HYDROCHLORIDE], the “Inhibition (%)” value is 1.
`CC(C)c1ccc2c(c1)CCC1[C@](C)(CN)CCC[C@]21C.O=S(=O)(O)O` (some centres unmarked) [18-AMINOABIETA-8.11.13-TRIENE SULFATE]: the “Inhibition (%)” value was found to be 1.
Take “TEICOPLANIN [TEICOPLANIN [A(2-1) shown]]”: the “Inhibition (%)” value amounted to 148%.
For the compound `C[C@]12C=CC(=O)C=C1CC[C@@H]1[C@@H]2[C@@H](O)C[C@@]2(C)[C@H]1CC[C@]2(O)C(=O)COP(=O)([O-])[O-].[Na+].[Na+]` [PREDNISOLONE SODIUM PHOSPHATE], the “Inhibition (%)” value was 0.
For `O=c1cc(-c2ccccc2)oc2c(O)c(O)ccc12` [7.8-DIHYDROXYFLAVONE], the “Inhibition (%)” value is 5.
As for `NC(=O)CC[C@H](N)C(=O)O` [GLUTAMINE (L)], the “Inhibition (%)” value was found to be 0.
With `COc1ccc(-c2coc3cc(OC)ccc3c2=O)cc1` [7.4'-DIMETHOXYISOFLAVONE], the “Inhibition (%)” value was determined as 1.
Turning to `CCCCCCCCCCCCCCC(C(=O)O)C(O)(CC(=O)OC)C(=O)O` (centres unmarked) [CAPERATIC ACID], the “Inhibition (%)” value is 8.
With `CC(C)CC(N(C)C)C1(c2ccc(Cl)cc2)CCC1.Cl` (centres unmarked) [SIBUTRAMINE HYDROCHLORIDE], the “Inhibition (%)” value was 1.

The values are drawn from article PMC6627609, “Targeting Quorum Sensing: High-Throughput Screening to Identify Novel LsrK Inhibitors” (International Journal of Molecular Sciences, 2019).
